Reference: patent US12441768B2, “Compositions and methods for treating endometriosis” (EndoMet Biosciences, Inc., priority 2018, dated 2025)
*1 amine or outer side, *2 acyl side, *3 side chain or, on linkers, in order; H or OH if unused. Where a SMILES comes first, the peptide text is derived from it. [ ]: non-standard residue; d: D form. ξ: configuration not given here. X4 = CC[C@@H](C)C(N[*:1])C(=O)[*:2]; ξW = NC(Cc1c[nH]c2ccccc12)C(=O)O; ξL = CC(C)CC(N)C(=O)O; ξC = NC(CS)C(=O)O; βAla = NCCC(=O)O

Target: T1, β-catenin (Homo sapiens, UniProt P35222)
T1 sequence (P35222 1-781): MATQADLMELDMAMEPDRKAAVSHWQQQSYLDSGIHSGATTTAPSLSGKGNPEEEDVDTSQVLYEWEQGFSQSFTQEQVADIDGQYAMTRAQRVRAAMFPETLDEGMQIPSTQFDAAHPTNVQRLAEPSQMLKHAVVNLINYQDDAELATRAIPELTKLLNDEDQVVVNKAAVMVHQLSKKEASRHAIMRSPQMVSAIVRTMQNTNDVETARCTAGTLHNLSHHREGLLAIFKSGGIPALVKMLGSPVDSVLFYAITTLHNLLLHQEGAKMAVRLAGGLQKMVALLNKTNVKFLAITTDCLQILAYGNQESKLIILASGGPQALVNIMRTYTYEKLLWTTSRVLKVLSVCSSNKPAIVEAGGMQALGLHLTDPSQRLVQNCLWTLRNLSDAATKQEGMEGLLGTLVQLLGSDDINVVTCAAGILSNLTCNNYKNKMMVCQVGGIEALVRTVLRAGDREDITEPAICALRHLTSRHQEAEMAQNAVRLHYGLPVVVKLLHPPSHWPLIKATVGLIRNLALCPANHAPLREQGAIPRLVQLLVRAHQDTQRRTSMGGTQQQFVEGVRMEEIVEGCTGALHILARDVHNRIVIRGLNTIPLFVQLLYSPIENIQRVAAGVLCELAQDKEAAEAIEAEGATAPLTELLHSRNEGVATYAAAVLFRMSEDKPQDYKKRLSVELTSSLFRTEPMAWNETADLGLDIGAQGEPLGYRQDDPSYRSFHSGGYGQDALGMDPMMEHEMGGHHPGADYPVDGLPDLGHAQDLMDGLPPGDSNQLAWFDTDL
Assay: KD50 measurement using competitive fluorescence polarization (FP) with labelled TCF4
Assay type: binding
Conditions: fluorescence polarization, β-catenin; for Kd: read-out: β-Cat FP KD
Source text: Fluorescence polarization (FP) is another method used to analyze protein-ligand interactions. This methodology measures the change in fluorescence light emitted by a labelled compound free vs. conjugated to another compound in solution. Upon binding of the fluorescent molecule to a complex, polarization increases because of limited rotation of the fluorescent tracer. Competitive FP is often utilized in drug screens as it is formatted for high throughput screens in a plate format. This immunoassay is performed by introducing a non-conjugated drug to compete for binding to the labelled competitor-ligand complex, leading to a reduction in polarization. TCF4 protein is utilized for the competitive assay as (1) this protein influences the full activation of the Wnt pathway and (2) shares homology with the β-catenin inhibitors. Exemplary methodology is described in Example 13. Data were analyzed and plotted in Microsoft Excel (Microsoft, Redmond, WA).
5 nM of labelled TCF4 protein was added to solution of 100 nM of β-catenin and incubated at room temperature in 96-well plates (Greiner 96 Flat transparent plates, Millipore Sigma, Carlsbad CA). Varying concentrations of β-catenin inhibitor candidate (SEQ ID NO: 404) were then added in a series of serial dilutions from 10 nM to 30 uM of inhibitor in different wells of the plate. The fluorescence polarization was read by Infinite M1000 (Tecan, Baldwin Park CA) at excitation wavelength of 470 nm and measured at emission wavelength of 520 nm. […] The experiments were performed three times and data were analyzed and plotted in Microsoft Excel (Microsoft, Redmond, WA).

Compound	β-Cat FP Hill slope	Kd [µM]
CC[C@H](C)[C@@H]1NC(=O)[C@H](CC(C)C)NC(=O)[C@H](Cc2ccccc2)NC(=O)[C@H](Cc2c[nH]c3ccccc23)NC(=O)[C@@H](N)CCCCNC(=O)CC[C@@H](C(=O)N[C@@H](Cc2c[nH]c3ccccc23)C(=O)NCC(=O)O)NC(=O)[C@H](CO)NC1=O [compound 228] (HELM PEPTIDE1{K.W.F.L.I.S.E.W.G}$PEPTIDE1,PEPTIDE1,1:R3-7:R3$$$V2.0)	0.2	> 30
CC[C@H](C)[C@@H]1NC(=O)[C@H](CC(C)C)NC(=O)[C@H](Cc2ccccc2)NC(=O)[C@H](Cc2c[nH]c3ccccc23)NC(=O)[C@@H](N)CCCCNC(=O)CC[C@@H](C(=O)N[C@@H](Cc2ccccc2)C(=O)N[C@@H](Cc2c[nH]c3ccccc23)C(=O)NCC(=O)O)NC1=O [compound 229] (HELM PEPTIDE1{K.W.F.L.I.E.F.W.G}$PEPTIDE1,PEPTIDE1,1:R3-6:R3$$$V2.0)	0.43	1 to 10
CC[C@H](C)[C@@H]1NC(=O)[C@H](CC(C)C)NC(=O)[C@@H](NC(=O)[C@H](Cc2c[nH]c3ccccc23)NC(=O)[C@@H](N)CCSC)CCCCNC(=O)CC[C@@H](C(=O)N[C@@H](Cc2ccccc2)C(=O)N[C@@H](Cc2c[nH]c3ccccc23)C(=O)NCC(=O)O)NC1=O [compound 230] (HELM PEPTIDE1{M.W.K.L.I.E.F.W.G}$PEPTIDE1,PEPTIDE1,3:R3-6:R3$$$V2.0)	0.77	< 0.4
CC(C)C[C@@H]1NC(=O)[C@H](Cc2ccccc2)NC(=O)[C@H](Cc2c[nH]c3ccccc23)NC(=O)[C@@H](N)CCCCNC(=O)CC[C@@H](C(=O)N[C@@H](CO)C(=O)N[C@@H](Cc2ccccc2)C(=O)N[C@@H](Cc2c[nH]c3ccccc23)C(=O)NCC(=O)O)NC1=O [compound 231] (HELM PEPTIDE1{K.W.F.L.E.S.F.W.G}$PEPTIDE1,PEPTIDE1,1:R3-5:R3$$$V2.0)	0.7	1 to 10
CC[C@H](C)[C@H](NC(=O)[C@H](CC(C)C)NC(=O)[C@@H]1CCC(=O)NCCCC[C@H](N)C(=O)N[C@@H](Cc2c[nH]c3ccccc23)C(=O)N1)C(=O)N[C@@H](CO)C(=O)N[C@@H](Cc1ccccc1)C(=O)N[C@@H](Cc1c[nH]c2ccccc12)C(=O)NCC(=O)O [compound 232] (HELM PEPTIDE1{K.W.E.L.I.S.F.W.G}$PEPTIDE1,PEPTIDE1,1:R3-3:R3$$$V2.0)	2.73	1 to 10
CC[C@H](C)[C@@H]1NC(=O)[C@H](CC(C)C)NC(=O)[C@H](Cc2ccccc2)NC(=O)[C@H](Cc2c[nH]c3ccccc23)NC(=O)[C@@H](N)CC(=O)NCCCC[C@@H](C(=O)O)NC(=O)[C@H](Cc2c[nH]c3ccccc23)NC(=O)[C@H](C)NC(=O)[C@H](CS)NC1=O [compound 233] (HELM PEPTIDE1{D.W.F.L.I.C.A.W.K}$PEPTIDE1,PEPTIDE1,1:R3-9:R3$$$V2.0)	0.74	< 0.4
CC[C@@H](C)C(NC(=O)C(CC(C)C)NC(=O)[C@H](Cc1ccccc1)NC(=O)C(Cc1c[nH]c2ccccc12)NC(=O)[C@H](CCCCN)NC(C)=O)C(=O)NC(CS)C(=O)N[C@@H](C)C(=O)NC(Cc1c[nH]c2ccccc12)C(=O)NCCC(=O)O (stereo partly shown) [compound 235] (Ac-K[ξW]F[ξL][X4][ξC]A[ξW][βAla]-OH)	–	> 30
CC[C@H](C)[C@H](NC(=O)[C@@H](N)CC(C)C)C(=O)N[C@@H](CO)C(=O)N[C@@H](Cc1ccccc1)C(=O)N[C@@H](Cc1c[nH]c2ccccc12)C(=O)NCC(=O)O [compound 237] (H-LISFWG-OH)	0.72	> 30
CC[C@H](C)[C@H](NC(=O)[C@H](CC(C)C)NC(C)=O)C(=O)N[C@@H](CO)C(=O)N[C@@H](Cc1ccccc1)C(=O)N[C@@H](Cc1c[nH]c2ccccc12)C(=O)NCC(=O)O [compound 238] (Ac-LISFWG-OH)	0.7	10 to 30
CC[C@H](C)[C@H](NC(=O)[C@H](CC(C)C)NC(=O)[C@H](Cc1ccccc1)NC(C)=O)C(=O)N[C@@H](CO)C(=O)N[C@@H](Cc1ccccc1)C(=O)N[C@@H](Cc1c[nH]c2ccccc12)C(=O)NCC(=O)O [compound 239] (Ac-FLISFWG-OH)	0.7	1 to 10
CC[C@H](C)[C@H](NC(=O)[C@H](CC(C)C)NC(=O)[C@@H](NC(=O)[C@H](Cc1c[nH]c2ccccc12)NC(=O)[C@H](CCSC)NC(C)=O)[C@@H](C)CC)C(=O)N[C@@H](CO)C(=O)N[C@@H](Cc1ccccc1)C(=O)N[C@@H](Cc1c[nH]c2ccccc12)C(=O)NCCCC(=O)O [compound 240] (HELM PEPTIDE1{[ac].M.W.I.L.I.S.F.W.[O=C(O)CCCN[*:1]]}$$$$V2.0)	1.44	< 0.4
CC[C@H](C)[C@H](NC(=O)[C@H](CC(C)C)NC(=O)[C@@H](N)Cc1ccccc1)C(=O)N[C@@H](CO)C(=O)N[C@@H](Cc1ccccc1)C(=O)N[C@@H](Cc1c[nH]c2ccccc12)C(=O)NCC(=O)O [compound 241] (H-FLISFWG-OH)	0.7	1 to 10
CC[C@@H]1NC(=O)[C@H]([C@@H](C)CC)NC(=O)[C@H](CC(C)C)NC(=O)[C@H](Cc2ccccc2)NC(=O)[C@H](Cc2c[nH]c3ccccc23)NC(=O)[C@@H](NC(C)=O)CCCCNC(=O)C[C@@H](C(=O)O)NC(=O)[C@H](Cc2c[nH]c3ccccc23)NC(=O)[C@H](C)NC1=O [compound 243] (HELM PEPTIDE1{[ac].K.W.F.L.I.[Abu].A.W.D}$PEPTIDE1,PEPTIDE1,2:R3-10:R3$$$V2.0)	0.7	10 to 30
CC[C@@H]1NC(=O)[C@H]([C@@H](C)CC)NC(=O)[C@H](CC(C)C)NC(=O)[C@H](Cc2ccccc2)NC(=O)[C@H](Cc2c[nH]c3ccccc23)NC(=O)[C@@H](N)CCCCNC(=O)C[C@@H](C(=O)O)NC(=O)[C@H](Cc2c[nH]c3ccccc23)NC(=O)[C@H](C)NC1=O [compound 244] (HELM PEPTIDE1{K.W.F.L.I.[Abu].A.W.D}$PEPTIDE1,PEPTIDE1,1:R3-9:R3$$$V2.0)	1.9	0.4 to 1
CC[C@H](C)[C@@H]1NC(=O)[C@H](CC(C)C)NC(=O)[C@H](Cc2ccccc2)NC(=O)[C@H](Cc2c[nH]c3ccccc23)NC(=O)CCCCCNC(=O)C[C@@H](C(=O)O)NC(=O)[C@H](Cc2c[nH]c3ccccc23)NC(=O)[C@H](C)NC(=O)[C@H](CS)NC1=O [compound 245] (HELM PEPTIDE1{[O=C(CCCCCN[*:1])[*:2]].W.F.L.I.C.A.W.D}$PEPTIDE1,PEPTIDE1,1:R1-9:R3$$$V2.0)	1.28	< 0.4
CC[C@@H]1NC(=O)[C@H]([C@@H](C)CC)NC(=O)[C@H](CC(C)C)NC(=O)[C@H](Cc2ccccc2)NC(=O)[C@H](Cc2c[nH]c3ccccc23)NC(=O)CCCCCNC(=O)C[C@@H](C(=O)O)NC(=O)[C@H](Cc2c[nH]c3ccccc23)NC(=O)[C@H](C)NC1=O [compound 246] (HELM PEPTIDE1{[O=C(CCCCCN[*:1])[*:2]].W.F.L.I.[Abu].A.W.D}$PEPTIDE1,PEPTIDE1,1:R1-9:R3$$$V2.0)	3	< 0.4
CC[C@H](C)[C@@H]1NC(=O)[C@H](CC(C)C)NC(=O)[C@H](Cc2ccccc2)NC(=O)[C@H](Cc2c[nH]c3ccccc23)NC(=O)[C@@H](N)CCCCNC(=O)CCCNC(=O)C[C@@H](C(=O)O)NC(=O)[C@H](Cc2c[nH]c3ccccc23)NC(=O)[C@H](C)NC(=O)[C@H](CS)NC1=O [compound 247] (HELM PEPTIDE1{K.W.F.L.I.C.A.W.[O=C(O)[C@H](CC(=O)[*:2])N[*:1]].[O=C(CCCN[*:1])[*:2]]}$PEPTIDE1,PEPTIDE1,1:R3-10:R2$$$V2.0)	2.34	< 0.4
CC[C@H](C)[C@@H]1NC(=O)[C@H](CC(C)C)NC(=O)[C@H](Cc2ccccc2)NC(=O)[C@H](Cc2c[nH]c3ccccc23)NC(=O)[C@@H](N)CCCCNC(=O)CCCCNC(=O)C[C@@H](C(=O)O)NC(=O)[C@H](Cc2c[nH]c3ccccc23)NC(=O)[C@H](C)NC(=O)[C@H](CS)NC1=O [compound 248] (HELM PEPTIDE1{K.W.F.L.I.C.A.W.[O=C(O)[C@H](CC(=O)[*:2])N[*:1]].[O=C(CCCCN[*:1])[*:2]]}$PEPTIDE1,PEPTIDE1,1:R3-10:R2$$$V2.0)	–	> 30
